According to the supplement of paper PMC10307832:

How the values were obtained:
Assay in all cases: relative viability (nuclei count vs DMSO), 5 days (fraction); higher = more cells survive
[1] = compound: CO[C@H]1C[C@@H]2CC[C@@H](C)[C@@](O)(O2)C(=O)C(=O)N2CCCC[C@H]2C(=O)O[C@H]([C@H](C)C[C@@H]2CC[C@@H](OCCO)[C@H](OC)C2)CC(=O)[C@H](C)/C=C(\C)[C@@H](O)[C@@H](OC)C(=O)[C@H](C)C[C@H](C)/C=C/C=C/C=C/1C [Everolimus] + CS(=O)(=O)CCNCc1ccc(-c2ccc3ncnc(Nc4ccc(OCc5cccc(F)c5)c(Cl)c4)c3c2)o1 [Lapatinib] (partner 2 µM)
Outline: (§1)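 Five library-drug doses in √10 steps were combined with a fixed anchor-drug dose, or a single drug was given alone, by pin tool to lung cancer cell lines in 1536-well plates the day after seeding. Nuclei were stained and counted after 5 days. Relative viability is the nuclei count in treated wells over that in vehicle wells, taken as the median of duplicate plates.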

[2] = compound: CO[C@H]1C[C@@H]2CC[C@@H](C)[C@@](O)(O2)C(=O)C(=O)N2CCCC[C@H]2C(=O)O[C@H]([C@H](C)C[C@@H]2CC[C@@H](OCCO)[C@H](OC)C2)CC(=O)[C@H](C)/C=C(\C)[C@@H](O)[C@@H](OC)C(=O)[C@H](C)C[C@H](C)/C=C/C=C/C=C/1C [Everolimus] + CC(=O)Nc1cccc(-n2c(=O)n(C3CC3)c(=O)c3c(Nc4ccc(I)cc4F)n(C)c(=O)c(C)c32)c1 [Trametinib] (partner 0.02 µM)
Outline: as §1

[3] = compound: CO[C@H]1C[C@@H]2CC[C@@H](C)[C@@](O)(O2)C(=O)C(=O)N2CCCC[C@H]2C(=O)O[C@H]([C@H](C)C[C@@H]2CC[C@@H](OCCO)[C@H](OC)C2)CC(=O)[C@H](C)/C=C(\C)[C@@H](O)[C@@H](OC)C(=O)[C@H](C)C[C@H](C)/C=C/C=C/C=C/1C [Everolimus] + O=C(c1cc(Cc2n[nH]c(=O)c3ccccc23)ccc1F)N1CCN(C(=O)C2CC2)CC1 [Olaparib] (partner 8 µM)
Outline: as §1

[4] = compound: CO[C@H]1C[C@@H]2CC[C@@H](C)[C@@](O)(O2)C(=O)C(=O)N2CCCC[C@H]2C(=O)O[C@H]([C@H](C)C[C@@H]2CC[C@@H](OCCO)[C@H](OC)C2)CC(=O)[C@H](C)/C=C(\C)[C@@H](O)[C@@H](OC)C(=O)[C@H](C)C[C@H](C)/C=C/C=C/C=C/1C [Everolimus] + N=C(N)NC(=N)NCCc1ccccc1 [Phenformin] (partner 250 µM)
Outline: as §1

Cell Line | relative viability ([1]; first compound 0.01 µM) | relative viability ([1]; first compound 0.03162 µM) | relative viability ([1]; first compound 0.1 µM) | relative viability ([1]; first compound 0.3162 µM) | relative viability ([1]; first compound 1 µM) | relative viability ([2]; first compound 0.01 µM) | relative viability ([2]; first compound 0.03162 µM) | relative viability ([2]; first compound 0.1 µM) | relative viability ([2]; first compound 0.3162 µM) | relative viability ([2]; first compound 1 µM) | relative viability ([3]; first compound 0.01 µM) | relative viability ([3]; first compound 0.03162 µM) | relative viability ([3]; first compound 0.1 µM) | relative viability ([3]; first compound 0.3162 µM) | relative viability ([3]; first compound 1 µM) | relative viability ([4]; first compound 0.01 µM) | relative viability ([4]; first compound 0.03162 µM) | relative viability ([4]; first compound 0.1 µM) | relative viability ([4]; first compound 0.3162 µM) | relative viability ([4]; first compound 1 µM)
LC-2-ad | 0.924 | 0.874 | 0.941 | 0.931 | 1.08 | 0.961 | 0.957 | 0.948 | 0.964 | 0.891 | 0.861 | 0.972 | 0.817 | 0.84 | 0.864 | 0.54 | 0.502 | 0.54 | 0.516 | 0.491
NCI-H1793 | 0.316 | 0.337 | 0.378 | 0.352 | 0.278 | 0.315 | 0.247 | 0.247 | 0.312 | 0.228 | 0.346 | 0.345 | 0.319 | 0.343 | 0.235 | 0.294 | 0.242 | 0.329 | 0.313 | 0.29
HCC-827 | 0.191 | 0.13 | 0.163 | 0.204 | 0.153 | 0.494 | 0.314 | 0.311 | 0.31 | 0.295 | 0.73 | 0.672 | 0.681 | 0.501 | 0.645 | 0.434 | 0.404 | 0.416 | 0.396 | 0.403
HCC-78 | 0.633 | 1.28 | 0.521 | 0.36 | 0.534 | 0.637 | 0.56 | 0.493 | 0.529 | 0.47 | 0.827 | 0.43 | 0.657 | 0.717 | 0.678 | 0.504 | 0.462 | 0.451 | 0.564 | 0.626
NCI-H2085 | 0.489 | 0.364 | 0.434 | 0.506 | 0.486 | 0.313 | 0.329 | 0.299 | 0.264 | 0.297 | 0.704 | 0.75 | 0.698 | 0.705 | 0.583 | 0.573 | 0.559 | 0.395 | 0.503 | 0.521
PC-14 | 0.231 | 0.226 | 0.22 | 0.192 | 0.234 | 0.297 | 0.444 | 0.23 | 0.36 | 0.276 | 0.46 | 0.434 | 0.298 | 0.343 | 0.411 | 0.443 | 0.369 | 0.459 | 0.32 | 0.488
NCI-H1648 | – | – | – | – | – | 0.388 | 0.435 | 0.395 | 0.307 | 0.325 | 0.577 | 0.473 | 0.613 | 0.597 | 0.482 | – | – | – | – | –
A-427 | 0.811 | 0.902 | 0.645 | 0.768 | 0.85 | 0.472 | 0.482 | 0.472 | 0.556 | 0.574 | 0.576 | 0.723 | 0.635 | 0.656 | 0.691 | 0.281 | 0.357 | 0.278 | 0.254 | 0.289
ABC-1 | 0.925 | 1.13 | 0.751 | 0.816 | 0.873 | – | – | – | – | – | 1.17 | – | 1 | – | 0.749 | 0.223 | 0.249 | 0.21 | 0.203 | 0.264
ChaGo-K-1 | – | – | – | – | – | 0.647 | 0.795 | 0.729 | 0.751 | 0.796 | 0.424 | 0.492 | 0.466 | 0.401 | 0.494 | 0.532 | 0.467 | 0.394 | 0.536 | 0.568
IA-LM | 0.718 | 0.395 | 0.377 | 0.272 | 0.432 | – | – | – | – | – | 0.759 | 0.613 | 0.603 | 0.741 | 0.665 | – | – | – | – | –
EBC-1 | 0.23 | 0.218 | 0.208 | 0.184 | 0.25 | – | – | – | – | – | 0.505 | 0.324 | 0.31 | 0.349 | 0.334 | – | – | – | – | –
NCI-H1299 | 0.975 | 1.06 | 0.974 | 0.994 | 1 | – | – | – | – | – | 0.953 | 0.987 | 0.994 | 1.04 | 0.841 | – | – | – | – | –
NCI-H441 | – | – | – | – | – | 0.373 | 0.306 | 0.327 | 0.357 | 0.29 | 0.517 | 0.598 | 0.489 | 0.657 | 0.484 | 0.798 | 0.605 | 0.585 | 0.772 | 0.666
Calu-6 | 0.987 | 1.02 | 0.907 | 0.927 | 0.994 | – | – | – | – | – | 0.624 | 0.68 | 0.646 | 0.552 | 0.705 | – | – | – | – | –
A549 | 0.682 | 0.5 | 0.444 | 0.485 | 0.444 | – | – | – | – | – | 0.204 | 0.234 | 0.232 | 0.237 | 0.215 | 0.164 | 0.122 | 0.154 | 0.0954 | 0.157
NCI-H522 | – | – | – | – | – | 0.634 | 0.55 | 0.527 | 0.456 | 0.635 | 0.609 | 0.474 | 0.429 | 0.448 | 0.438 | 0.588 | 0.527 | 0.549 | 0.51 | 0.503
NCI-H1703 | 0.569 | 0.481 | 0.548 | 0.489 | 0.847 | – | – | – | – | – | 0.36 | 0.218 | 0.333 | 0.233 | 0.337 | – | – | – | – | –
LCLC-103H | – | – | – | – | – | 0.605 | 0.659 | 0.661 | 0.601 | 0.591 | 0.709 | 0.762 | 0.669 | 0.685 | 0.761 | 0.309 | 0.274 | 0.294 | 0.309 | 0.331
NCI-H1563 | 0.785 | 0.839 | 0.758 | 0.769 | 0.817 | – | – | – | – | – | – | – | – | – | – | 0.658 | 0.661 | 0.657 | 0.657 | 0.592
